Data taken from US10799478B2, “Treatment of androgen deprivation therapy associated symptoms” (priority 2014, dated 2020).

Experiments:
healthy human volunteers = assay: Phase Ib Study of Healthy Volunteers; type: in vivo; conditions: males
[1] = system: LnCAP human prostate cancer cells; assay: LnCAP Gene Expression; type: cell-based
human Androgen receptor = target: T1, human Androgen receptor (Homo sapiens, UniProt P10275); assay: hAR binding affinity (Ki); conditions: comparison with R1881
T1 sequence (P10275 1-920): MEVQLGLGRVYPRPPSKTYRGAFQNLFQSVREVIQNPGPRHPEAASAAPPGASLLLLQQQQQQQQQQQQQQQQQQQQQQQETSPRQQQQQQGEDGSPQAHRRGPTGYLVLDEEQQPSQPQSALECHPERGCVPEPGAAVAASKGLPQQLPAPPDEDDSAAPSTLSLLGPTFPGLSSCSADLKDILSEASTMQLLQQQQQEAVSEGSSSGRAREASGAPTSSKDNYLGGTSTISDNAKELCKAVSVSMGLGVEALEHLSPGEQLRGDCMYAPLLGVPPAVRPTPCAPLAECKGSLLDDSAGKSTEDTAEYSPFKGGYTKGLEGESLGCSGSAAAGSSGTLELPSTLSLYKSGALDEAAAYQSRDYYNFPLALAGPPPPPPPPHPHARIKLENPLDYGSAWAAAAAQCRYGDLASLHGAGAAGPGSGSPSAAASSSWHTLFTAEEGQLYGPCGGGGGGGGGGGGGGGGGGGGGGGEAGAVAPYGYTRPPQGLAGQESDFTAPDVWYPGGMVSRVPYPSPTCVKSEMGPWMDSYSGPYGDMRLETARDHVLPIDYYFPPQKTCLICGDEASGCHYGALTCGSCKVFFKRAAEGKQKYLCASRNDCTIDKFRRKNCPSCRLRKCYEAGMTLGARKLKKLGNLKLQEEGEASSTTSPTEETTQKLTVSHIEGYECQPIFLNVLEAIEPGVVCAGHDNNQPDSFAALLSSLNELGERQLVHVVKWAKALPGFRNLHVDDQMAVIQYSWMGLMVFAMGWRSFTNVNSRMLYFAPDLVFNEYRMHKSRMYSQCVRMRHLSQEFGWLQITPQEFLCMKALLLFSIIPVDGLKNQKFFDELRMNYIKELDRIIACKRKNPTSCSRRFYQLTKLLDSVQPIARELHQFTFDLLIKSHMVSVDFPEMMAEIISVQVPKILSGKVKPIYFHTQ

beagle dogs = assay: Four Week Oral Toxicity Study in Dogs; type: in vivo, dog
Description: […] One additional group of three animals/sex serves as the control and receives the vehicle, 80% PEG 3350/20% Vitamin E TPGS (v/v) via oral capsule. The test article or vehicle is administered to all groups via oral capsule, twice a day for 28 consecutive days, at a dose volume of 1.5 mL/kg/dose.
Observations for mortality, morbidity, injury, and the availability of food and water are conducted twice daily for all animals. Detailed clinical observations are conducted weekly. Body weights are measured and recorded the day after receipt, prior to randomization, and weekly during the study. Food consumption is measured and recorded weekly. Ophthalmoscopic examinations are conducted pretest and prior to the terminal necropsy. Physical examinations are conducted pretest. Neurological examinations are conducted during Weeks 1 and 4. ECG examinations are conducted twice prior to the initiation of dosing and prior to and approximately 2 hours (±15 minutes) after the morning test article administration on Days 3 and 26. […] The toxicokinetic parameters are determined for the test article from concentration-time data in the test species. At study termination, necropsy examinations are performed, organ weights are recorded, and testes, epididymis, and prostates are microscopically examined.

ORX Wistar male rats = assay: In Vivo Study to Explore Direct Antagonist Effect of Example 1 in the Presence of TE; set-up: species or system rat; conditions: for Seminal Vesicle Wet Weights, Abs(Dif) − LSD / Prostate Weights, Abs(Dif) − LSD: vs TE alone; for Prostate Weight, % Sham / SV Weight, % Sham: 8 weeks
Description: Route of administration for all groups except TE is oral. TE is administered subcutaneously. At the end of 8 weeks of daily dosing, rats are euthanized, weighed & tissue harvested. Levator ani, prostates, and seminal vesicles are collected from each animal. Results are plotted as means±SE.

[2] = Allometric prediction of human clearance, bioavailability and dose
[3] = ORX + TE 1 mg/kg/d + Example 1 3 mg/kg/d po
[4] = ORX + TE 1 mg/kg/d + Example 1 3 mg/kg/d
[5] = ORX + TE 1 mg/kg/d + Example 1 10 mg/kg/d po
[6] = ORX + TE 1 mg/kg/d + Example 1 10 mg/kg/d
[7] = ORX + TE 1 mg/kg/d + Example 1 30 mg/kg/d

**Q.** What does the source list for `CC(C)OC(=O)N[C@H]1Cc2c(n(Cc3ccccn3)c3ccc(C#N)cc23)C1` (single isomer, unassigned) [Example 1]?
**A.** Change from Baseline for P1NP, Comparison to Placebo Difference (healthy human volunteers; 1 mg, day 14): -2.40 µg/L; Change from Baseline for Procollagen Type I N Propeptide (P1NP), LS Mean (healthy human volunteers; 1 mg, day 14): -3.55 µg/L; Change from Baseline for P1NP, Comparison to Placebo Difference (healthy human volunteers; 1 mg, day 28): 1.49 µg/L; Change from Baseline for Procollagen Type I N Propeptide (P1NP), LS Mean (healthy human volunteers; 1 mg, day 28): 0.16 µg/L; Change from Baseline for P1NP, Comparison to Placebo Difference (healthy human volunteers; 1 mg, day 35): -2.26 µg/L; Change from Baseline for Procollagen Type I N Propeptide (P1NP), LS Mean (healthy human volunteers; 1 mg, day 35): -5.70 µg/L; Change from Baseline for P1NP, Comparison to Placebo Difference (healthy human volunteers; 5 mg, day 14): 3.27 µg/L; Change from Baseline for Procollagen Type I N Propeptide (P1NP), LS Mean (healthy human volunteers; 5 mg, day 14): 2.11 µg/L; Change from Baseline for P1NP, Comparison to Placebo Difference (healthy human volunteers; 5 mg, day 28): 4.20 µg/L; Change from Baseline for Procollagen Type I N Propeptide (P1NP), LS Mean (healthy human volunteers; 5 mg, day 28): 2.88 µg/L; Change from Baseline for P1NP, Comparison to Placebo Difference (healthy human volunteers; 5 mg, day 35): 1.13 µg/L; Change from Baseline for Procollagen Type I N Propeptide (P1NP), LS Mean (healthy human volunteers; 5 mg, day 35): -2.31 µg/L; Change from Baseline for P1NP, Comparison to Placebo Difference (healthy human volunteers; 15 mg, day 14): 2.49 µg/L; Change from Baseline for Procollagen Type I N Propeptide (P1NP), LS Mean (healthy human volunteers; 15 mg, day 14): 1.34 µg/L; Change from Baseline for P1NP, Comparison to Placebo Difference (healthy human volunteers; 15 mg, day 28): 3.41 µg/L; Change from Baseline for Procollagen Type I N Propeptide (P1NP), LS Mean (healthy human volunteers; 15 mg, day 28): 2.09 µg/L; Change from Baseline for P1NP, Comparison to Placebo Difference (healthy human volunteers; 15 mg, day 35): 0.03 µg/L; Change from Baseline for Procollagen Type I N Propeptide (P1NP), LS Mean (healthy human volunteers; 15 mg, day 35): -3.41 µg/L; Change from Baseline for P1NP, Comparison to Placebo Difference (healthy human volunteers; 25 mg, day 14): -0.92 µg/L; Change from Baseline for Procollagen Type I N Propeptide (P1NP), LS Mean (healthy human volunteers; 25 mg, day 14): -2.07 µg/L; Change from Baseline for P1NP, Comparison to Placebo Difference (healthy human volunteers; 25 mg, day 28): 2.75 µg/L; Change from Baseline for Procollagen Type I N Propeptide (P1NP), LS Mean (healthy human volunteers; 25 mg, day 28): 1.43 µg/L; Change from Baseline for P1NP, Comparison to Placebo Difference (healthy human volunteers; 25 mg, day 35): 0.47 µg/L; Change from Baseline for Procollagen Type I N Propeptide (P1NP), LS Mean (healthy human volunteers; 25 mg, day 35): -2.97 µg/L; Change from Baseline for P1NP, Comparison to Placebo Difference (healthy human volunteers; 75 mg, day 14): -3.81 µg/L; Change from Baseline for Procollagen Type I N Propeptide (P1NP), LS Mean (healthy human volunteers; 75 mg, day 14): -4.96 µg/L; Change from Baseline for P1NP, Comparison to Placebo Difference (healthy human volunteers; 75 mg, day 28): 2.81 µg/L; Change from Baseline for Procollagen Type I N Propeptide (P1NP), LS Mean (healthy human volunteers; 75 mg, day 28): 1.48 µg/L; Change from Baseline for P1NP, Comparison to Placebo Difference (healthy human volunteers; 75 mg, day 35): 2.35 µg/L; Change from Baseline for Procollagen Type I N Propeptide (P1NP), LS Mean (healthy human volunteers; 75 mg, day 35): -1.09 µg/L; EC50 ([1]; Homo sapiens, LNCaP, AR gene, read-out: LnCAP Gene Expression EC50 (nM) AR): 1.64 nM; androgenicity in vitro in human prostate cancer cells ([1]; comparison with R1881): less androgenic than R1881; biochemical binding affinity to the human Androgen receptor (human Androgen receptor): only modestly reduced; increase of exposure with dose (beagle dogs; dogs given 6 and 60 mg/kg/day, plateau at 60 mg/kg/day): less than dose proportional; gender effect on exposure (beagle dogs; male vs female dogs): no gender effect; Seminal Vesicle Wet Weights, Abs(Dif) − LSD (ORX Wistar male rats; ORX + Example 1 10 mg/kg/d without TE): 1.411; Prostate Weight, % Sham (ORX Wistar male rats; [3]): 42.7 % Sham; SV Weight, % Sham (ORX Wistar male rats; [3]): 53.5 % Sham; Prostate Weights, Abs(Dif) − LSD (ORX Wistar male rats; [4]): −0.11; Seminal Vesicle Wet Weights, Abs(Dif) − LSD (ORX Wistar male rats; [4]): −0.34; Prostate Weight, % Sham (ORX Wistar male rats; [5]): 30.3 % Sham; SV Weight, % Sham (ORX Wistar male rats; [5]): 42.0 % Sham; Prostate Weights, Abs(Dif) − LSD (ORX Wistar male rats; [6]): 0.036; Seminal Vesicle Wet Weights, Abs(Dif) − LSD (ORX Wistar male rats; [6]): 0.078; Prostate Weight, % Sham (ORX Wistar male rats; ORX + TE 1 mg/kg/d + Example 1 30 mg/kg/d po): 31.2 % Sham; Prostate Weights, Abs(Dif) − LSD (ORX Wistar male rats; [7]): 0.025; Seminal Vesicle Wet Weights, Abs(Dif) − LSD (ORX Wistar male rats; [7]): 0.536; prostate wet weight in mg normalized to body weight (ORX Wistar male rats; co-treatment with 1 mg/Kg TE): dose-dependent decrease; seminal vesicle wet weight in mg normalized to body weight, induced by TE alone (ORX Wistar male rats; combination with TE 1 mg/Kg-day and various doses of Example 1): trend in decreasing; predicted human bioavailability [2]: 49%; allometrically predicted human clearance ([2]; 90% CI 24 to 46): 33 Uh
